The text below walks through data of BindingDB's records for doi:10.1021/jm00062a001 (Upjohn Laboratories, 1993).

The nature of experiment [1]: Binding affinity against 5-hydroxytryptamine 1A receptor from bovine hippocampus, used [3H]8-OH-DPAT as radioligand.
The target of experiment [2] is 5-hydroxytryptamine receptor 1A (Bos taurus). The experiment is described as above.

Structures are written as SMILES. pKi: −log10 of the molar value.

In experiment [1], `CCCN1CC[C@H]2c3c(cccc3OC)CC[C@H]21` [(3aS,9bR) 9-Methoxy-3-propyl-2,3,3a,4,5,9b-hexahydro-1H-benzo[e]indole] had a pKi of 8.36. Take `Cc1[nH]c2cccc3c2c1C[C@@H]1C3C[C@H](NC(=O)C(C)(C)C)CN1C` (some centres not stated) [SDZ-208-911]: the pKi in experiment [2] is 7.72.
